Experimental data from US20130042333A1, “MARKERS FOR CANCER PROGNOSIS AND THERAPY AND METHODS OF USE” (priority 2011, published 2013).

Tests used:
[1] = system: HBCx-6 breast cancer xenograft; experiment: Tumor regression-regrowth assay, HBCx-6 xenograft; type: in vivo, human tumor in Swiss nude mice; conditions: HBCx-6 combination study; A/C 2/100 mg/kg; AZD2281 50 mg/kg i.p.
From the text: (§1) Tumor xenografts were generated by direct subcutaneous grafting into immunodeficient mice of human tumor surgical samples with informed written consent of the patients and maintained by serial transplantation. […] They are thus clinically relevant tumor models, as opposed to xenografts produced from tumor cell lines that have been obtained by in vitro culture and often passaged for many years (Fiebig, H. H. et al. Eur J Cancer 40, 802-820, 2004; Marangoni E., Vincent-Salomon A., Auger N. et al. Clin Cancer Res. 2007 Jul. 1; 13:3989-98).
(§2) Chemotherapeutic drugs were administered by intraperitoneal route according to the following doses and schedules: adriamycin, 2 mg/kg, q3wk (Doxorubicin®, Teva Pharmaceuticals, France) and Cyclophosphamide, 100 mg/kg, q3wk (Endoxan®, Baxter, France). […] Tumor volume was evaluated by measuring two perpendicular diameters of the tumor, with a calliper, biweekly during the treatment period and once a week during the follow-up period. […] Mice were ethically sacrificed when the tumor volume reached 2000 mm3 Individual tumor growth delays (TGD) is calculated as the time in days required for individual tumors to reach 3- to 5-fold the initial median tumor volume. The tumor growth delay index (TGDI) is calculated as the median growth delay in the treated group divided by the median growth delay in the control group. […]

[2] = system: SC61 small-cell lung cancer xenograft; experiment: Tumor regression-regrowth assay, SC61 xenograft; type: in vivo, human tumor in immunodeficient mice; conditions: x1 cycle
From the text: as §1
as §2, with “France). Irinotecan (Campto®, Pfizer Holding France), 50 mg/kg, q4dx4. Etoposide 12 mg/kg, qdx3. Ifosfamide 90 mg/kg, qdx3. bPARP inhibitor (AZD2281, Sequoia Research Products, UK) at 50 mg/kg (ip; qdx14). A second treatment cycle was performed with PARP inhibitor at 50 mg/kg (ip qdx5) during the nodule phase.” for “France).”, “group. The percentage ratio between the mean tumor volume of a treated group (T) and the mean tumor volume of the control group (C) is calculated.” for “group.”

[3] = system: TC305 colorectal tumor xenograft; experiment: Tumor regression-regrowth assay, TC305 xenograft; type: in vivo, human tumor in immunodeficient mice; conditions: x1 cycle, mg/kg: Ox 10, Cap 540, I 50, B 5, Cet 5
From the text: as §1
(§3) Chemotherapeutic drugs were administered by intraperitoneal route according to the following doses and schedules: adriamycin, 2 mg/kg, q3wk (Doxorubicin®, Teva Pharmaceuticals, France) and Cyclophosphamide, 100 mg/kg, q3wk (Endoxan®, Baxter, France). Irinotecan (Campto®, Pfizer Holding France), 50 mg/kg, q4dx4. Etoposide 12 mg/kg, qdx3. Ifosfamide 90 mg/kg, qdx3. bPARP inhibitor (AZD2281, Sequoia Research Products, UK) at 50 mg/kg (ip; qdx14). A second treatment cycle was performed with PARP inhibitor at 50 mg/kg (ip qdx5) during the nodule phase. Other pharmacological inhibitors are tested and administrated at the nodule phase: JAK1/2 Inhibitor (CP-690550) at 15 mg/kg (po qdx14), Epigallocatechin gallate (ECGC) (Sequoia Research Products, UK) at 30 mg/kg (ip qdx28), HDAC inhibitor (Trichostatine A), Retinoic acid at 50 mg/kg (ip qdx28) (Sigma-Aldrich, France). Breast tumor xenograft models were transplanted into 5-week old female Swiss nude mice, as described above, one tumor being transplanted into 5-10 recipients. When tumors reached a volume of 60-250 mm3, mice were individually identified and randomly assigned to the control or treated groups (12 to 20 mice per group). Tumor volume was evaluated by measuring two perpendicular diameters of the tumor, with a calliper, biweekly during the treatment period and once a week during the follow-up period. The formula TV (mm3)=[length (mm)×width (mm)2]/2 was used, where the length and the width were the longest and the shortest diameters of the tumor, respectively. All animals were weighted biweekly during the treatment period and the follow-up period. Mice were ethically sacrificed when the tumor volume reached 2000 mm3 Individual tumor growth delays (TGD) is calculated as the time in days required for individual tumors to reach 3- to 5-fold the initial median tumor volume. The tumor growth delay index (TGDI) is calculated as the median growth delay in the treated group divided by the median growth delay in the control group. The percentage ratio between the mean tumor volume of a treated group (T) and the mean tumor volume of the control group (C) is calculated.
(§4) Tumors were collected from 5 independent mice at different time points: prior to treatment (=controls with volume<200 mm3); post-treatment residual tumors (=nodules with volume<32 mm3 until minimal palpation); recurrent tumors (=regrowth with volume>62.5 mm3) Tumors or nodules were processed for (1) FFPE (formalin-fixed paraffin-embedded) or for (2) snap frozen samples: samples were cut into 3-4 mm pieces (at least 3 fragments) and snap-frozen in liquid nitrogen, then transferred to −80° C. for storage. Samples were allocated for histology, microdissection and RNA analyses.
(§5) Three categories of responders were defined based on the TGDI and T/C values.

[4] = system: TC71 colorectal tumor xenograft; experiment: Tumor regression-regrowth assay, TC71 xenograft; type: in vivo, human tumor in immunodeficient mice; conditions: x1 cycle, mg/kg: Ox 10, Cap 540, I 50, B 5, Cet 5
From the text: as §1, §3, §4, §5

[5] = system: HBCx-17 breast tumor xenograft; experiment: Tumor regression-regrowth assay, HBCx-17 xenograft; type: in vivo, human tumor in Swiss nude mice; conditions: A/C 2/100 or Cap 540 mg/kg, x2 cycles
From the text: as §1, §3, §4, §5

[6] = system: HBCx-39 breast tumor xenograft; experiment: Tumor regression-regrowth assay, HBCx-39 xenograft; type: in vivo, human tumor in Swiss nude mice; conditions: Cap 540 mg/kg, x2 cycles
From the text: as §1, §3, §4, §5

[7] = system: IC20DAN (a primary NSCLC tumor xenograft); experiment: Tumor regression-regrowth assay, IC20DAN xenograft; type: in vivo, human tumor in immunodeficient mice; conditions: Doc 20 mg/kg, x1 cycle
From the text: as §1, §3, §4, §5

[8] = system: HBCx-24 breast tumor xenograft; experiment: Tumor regression-regrowth assay, HBCx-24 xenograft; type: in vivo, human tumor in Swiss nude mice; conditions: Doc 20 mg/kg, x2 cycles
From the text: as §1, §3, §4, §5

[9] = system: ODA14 RAV glioma xenograft; experiment: Tumor regression-regrowth assay, ODA14 RAV xenograft; type: in vivo, human tumor in immunodeficient mice; conditions: TMZ 42 mg/kg, x1 cycle
From the text: as §1, §3, §4, §5

[10] = CDDP 2/12 or VP16/IFO 12/90 mg/kg

With O=C(c1cc(Cc2n[nH]c(=O)c3ccccc23)ccc1F)N1CCN(C(=O)C2CC2)CC1 [AZD2281] the anti-tumor activity [1] was “significant anti-tumor activity” and the “tumors showing complete tumor regression” value [1] was 2 out of 7.

[NH2][Pt]([NH2])([Cl])[Cl] [CDDP, cisplatin] was tested, and the “% Tumor Relapse” value ([2]; CDDP 2/12 mg/kg) was 100%, the “% Nodules” value [2, 10] was 23% and the “Median Nodule Apparition Time” value [2, 10] was 13.

In the case of CCCCCOC(=O)Nc1nc(=O)n([C@@H]2O[C@H](C)[C@@H](O)[C@H]2O)cc1F [Cap, capecitabine], the “% Nodules” value [3] is reported as 33%, the “% Tumor Relapse” value [3] is reported as 100% and the “Median Nodule Apparition Time” value [3] is reported as 7. For the same compound, the “Median Time of Relapse” value [3] was 11, the “T/C % D21” value [3] was 40% and the TGDI [3] was 1.74. The “median TGD × 5” value [3] was 27.87 days, the “% Nodules” value [4] was 100% and the “% Tumor Relapse” value [4] was 100%. For the same compound, the “Median Nodule Apparition Time” value [4] was 22, the “Median Time of Relapse” value [4] was 36 and the “T/C % D21” value [4] was 5%. The TGDI [4] was 5.11, the “median TGD × 5” value [4] was 66.48 days and the “% Nodules” value [5] was 30%. The “% Tumor Relapse” value [5] was 100%, the “Median Nodule Apparition Time” value [5] was 50 and the “Median Time of Relapse” value [5] was 4. For the same compound, the “T/C % D21” value [5] was 48%, the “T/C % D42” value [5] was 12% and the TGDI [5] was greater than 2.81. For the same compound, the “median TGD × 5” value [5] was greater than 64 days, the “% Nodules” value [6] was 56% and the “% Tumor Relapse” value [6] was 100%. For the same compound, the “Median Nodule Apparition Time” value [6] was 17, the “Median Time of Relapse” value [6] was 63 and the “T/C % D21” value [6] was 11%. The TGDI [6] was greater than 4.54 and the “median TGD × 5” value [6] was greater than 84 days.

In the case of CC(=O)O[C@@]12CO[C@@H]1C[C@H](O)[C@@]1(C)C(=O)[C@H](O)C3=C(C)[C@@H](OC(=O)[C@H](O)[C@@H](NC(=O)OC(C)(C)C)c4ccccc4)C[C@@](O)([C@@H](OC(=O)c4ccccc4)[C@H]21)C3(C)C [Doc, docetaxel], the “% Nodules” value [7] is reported as 60%, the “% Tumor Relapse” value [7] is reported as 100% and the “Median Nodule Apparition Time” value [7] is reported as 11. For the same compound, the “Median Time of Relapse” value [7] was 9, the TGDI [7] was greater than 4.8 and the “median TGD × 5” value [7] was greater than 24 days. For the same compound, the “% Nodules” value [8] was 70%, the “% Tumor Relapse” value [8] was 71.4% and the “Median Nodule Apparition Time” value [8] was 10. The “Median Time of Relapse” value [8] was 14, the “T/C % D21” value [8] was 21% and the TGDI [8] was 2.39. For the same compound, the “median TGD × 5” value [8] was 35.44 days.

In the case of Cn1nnc2c(C(N)=O)ncn2c1=O [TMZ], the “% Nodules” value [9] is reported as 100%, the “% Tumor Relapse” value [9] is reported as 100% and the “Median Nodule Apparition Time” value [9] is reported as 7. For the same compound, the “Median Time of Relapse” value [9] was 21, the TGDI [9] was 6.66 and the “median TGD × 5” value [9] was 46.62 days.
